Test results: article PMC3561933 (Bioorganic & medicinal chemistry letters, 2012)

Legend:
[1] = system: HIV-1 Y181C combined with Lys103Asn; conditions: cited from earlier work
[2] = observed; cited from earlier work
HIV-1 Y181C variant [3] = conditions: ref 7b, cited from earlier work
HIV-1 Y181C variant [4] = format: cell-based; conditions: relative to 1f
[5] = system: HIV-1 strains with Tyr181Cys (Y181C) mutation; conditions: cited from earlier work

Compound: O=C1Nc2ccc(Cl)cc2[C@@](C#CC2CC2)(C(F)(F)F)O1 [efavirenz]
- activity towards Y181C combined with Lys103Asn [1]: debilitated

Compound: CC(C)c1ccccc1 [isopropylbenzene]
- octanol/water log P [2]: 3.7

Compound: N#Cc1ccc(Nc2ncc(Cc3c(F)cccc3F)o2)cc1 [Compound 1a]
- activity towards a Y181C-containing strain (HIV-1 Y181C variant [3]; earlier work): no activity

Compound: CCc1cc(F)c(Cc2cnc(Nc3ccc(Oc4cccnc4)c(Cl)c3)o2)c(F)c1 [Compound 2b]
- fold activity boost against WT virus in comparison to 2a (HIV-1 IIIB (wild-type); relative to 2a): 5 fold

Compound: N#Cc1ccc(Nc2ncc(Cc3c(F)cc(C4CC4)cc3F)o2)cc1Cl [Compound 1g]
- fold less active towards Y181C variant than 1f (HIV-1 Y181C variant [4]): 200 fold
- factor less active against WT virus than 1f (HIV-1 IIIB (wild-type); relative to 1f): 5

Compound: c1ccc(C2CC2)cc1 [cyclopropylbenzene]
- octanol/water log P [2]: 3.3

Compound: Cc1ccnc2c1NC(=O)c1cccnc1N2C1CC1 [nevirapine]
- activity towards HIV-1 strains with Y181C mutation [5]: inactive

Compound: CC(C)Nc1cccnc1N1CCN(C(=O)c2cc3cc(NS(C)(=O)=O)ccc3[nH]2)CC1 [delavirdine]
- activity towards HIV-1 strains with Y181C mutation [5]: inactive

Compound: CCc1cc(F)c(Cc2cnc(Nc3ccc(C#N)c(Cl)c3)o2)c(F)c1 [Compound 1e]
- gain in WT potency over 1b (factor) (HIV-1 IIIB (wild-type); relative to 1b): 5

Compound: Fc1cccc(F)c1Cc1cnc(Nc2ccc(Oc3cccnc3)c(Cl)c2)o1 [Compound 2a]
- EC50 (HIV-1 Y181C variant [3]; read-out: EC50 for the Y181C variant, earlier work): 3000 nM
